Literature values as cited in patent US20180136238A1 (priority 2016, published 2018).
Where two headings read alike, the source gives them in different places.

Columns and labels:
[1] = in vivo
[2] = blood, equilibrium of bicarbonate complex with protein bound uranyl ions

## [CH3][Hg][CH3] [dimethyl mercury]
[1]
  LD50 dose: 0.015 mg/kg

## [Hg+2].[S-2] [mercuric sulfide]
[1]
  LD50 dose: ~100,000.0 mg/kg

## [U] [uranium]
[2]
  uranium in blood bicarbonate-formed: 60%
  uranium in blood protein-formed: 40%
Other studies
  uranium in blood associated with red blood cells: 20%
  uranium in blood present in the inorganic compartment of plasma: 74%
  uranium in blood protein-formed: 32%

## arsenic
[1]
  LD50 dose: 14 mg/kg
